Our source for the IC50 values is patent publication US9155743B2, “Bicyclic heterocycle compounds and their uses in therapy” (priority 2011, dated 2015).

For orientation: pIC50 means the negative decadic logarithm of the IC50, by convention in mol/L.

The structures appear in SMILES notation. pIC50: −log10 of the molar value. Where a name gives a salt, the structure may show the parent alone.

The first assay has as its target cIAP-1 BIR3 domain (Homo sapiens (Human), UniProt Q13490). The assay is described as follows: cIAP-1 in vitro competitive displacement binding assay (fluorescence polarization). Conditions: AVPIK(5&6FAM)-amide probe (Probe A); given as ranges; read-out: IC50 or PI cIAP1.
In the case of `CN[C@@H](C)C(=O)Nc1ccc2c(n1)N[C@@H](C)C(=O)N2` [Example 15, (S)-2-Methylamino-N—((S)-3-methyl-2-oxo-1,2,3,4-tetrahydro-pyrido[2,3-b]pyrazin-6-yl)-propionamide hydrochloride], the pIC50 was […].
Turning to `CN[C@@H](C)C(=O)Nc1ccc2c(n1)n(C)c(=O)n2C` [Example 17, (S)—N-(1,3-Dimethyl-2-oxo-2,3-dihydro-1H-imidazo[4,5-b]pyridin-5-yl)-2-methylamino-propionamide hydrochloride], the pIC50 is 4.00 to 5.00.

Staying with this assay, now noted: AbuRPFK(5&6FAM)-amide probe (Probe B); given as ranges; read-out: IC50 or PI cIAP1.
As to `CN[C@@H](C)C(=O)Nc1ccc2c(n1)CN(c1ccccc1)C(=O)N2c1ccccc1` [Example 23, (S)-2-Methylamino-N-(2-oxo-1,3-diphenyl-1,2,3,4-tetrahydro-pyrido[3,2-d]pyrimidin-6-yl)-propionamide hydrochloride], the pIC50 was […].
As for `CN[C@@H](C)C(=O)Nc1ccc2c(n1)CN(C)C(=O)N2c1ccc(Cl)cc1` [Example 26, (S)—N-[1-(4-Chloro-phenyl)-3-methyl-2-oxo-1,2,3,4-tetrahydro-pyrido[3,2-d]pyrimidin-6-yl]-2-methylamino-propionamide hydrochloride], the pIC50 was […].
`CN[C@@H](C)C(=O)Nc1ccc2c(n1)CN(C(C)CC(C)C)C(=O)N2c1ccc(Cl)cc1` (stereo partly drawn) [Example 34, (S)-N-[1-(4-Chloro-phenyl)-3-(1,3-dimethyl-butyl)-2-oxo-1,2,3,4-tetrahydro-pyrido[3,2-d]pyrimidin-6-yl]-2-methylamino-propionamide hydrochloride]: the pIC50 is […].
Turning to `CN[C@@H](C)C(=O)Nc1ccc2c(n1)CN(C(C)CC(C)(C)C)C(=O)N2c1cccc(Cl)c1` (stereo partly drawn) [Example 39, (S)-N-[1-(3-Chloro-phenyl)-2-oxo-3-(1,3,3-trimethyl-butyl)-1,2,3,4-tetrahydro-pyrido[3,2-d]pyrimidin-6-yl]-2-methylamino-propionamide], the pIC50 was […].
On to `CN[C@@H](C)C(=O)Nc1ccc2c(n1)CN(c1ccc(Cl)cc1)C(=O)N2c1ccc(Cl)cc1` [Example 21, (S)—N-[1,3-Bis-(4-chloro-phenyl)-2-oxo-1,2,3,4-tetrahydro-pyrido[3,2-d]pyrimidin-6-yl]-2-methylamino-propionamide hydrochloride], for which the negative-log IC50 (pIC50) was […].
As to `CN[C@@H](C)C(=O)Nc1ccc2c(n1)CN(CCc1ccccc1)C(=O)N2c1ccc(Cl)cc1` [Example 41, (S)—N-[1-(4-Chloro-phenyl)-2-oxo-3-phenethyl-1,2,3,4-tetrahydro-pyrido[3,2-d]pyrimidin-6-yl]-2-methylamino-propionamide hydrochloride], the pIC50 was 6.00 to 8.00.
Same read-out and setting: in the case of `CN[C@@H](C)C(=O)Nc1ccc2c(n1)OC(C)(Cc1ccccc1)C(=O)N2c1cccc(Cl)c1` (stereo partly drawn) [Example 11, (S)-N-[3-Benzyl-1-(3-chloro-phenyl)-3-methyl-2-oxo-2,3-dihydro-1H-pyrido[2,3-b][1,4]oxazin-6-yl]-2-methylamino-propionamide hydrochloride] it was […]; in that of `CN[C@@H](C)C(=O)Nc1ccc2c(n1)CN(C1CCCCC1)C(=O)N2c1ccc(Cl)cc1` [Example 29, (S)—N-[1-(4-Chloro-phenyl)-3-cyclohexyl-2-oxo-1,2,3,4-tetrahydro-pyrido[3,2-d]pyrimidin-6-yl]-2-methylamino-propionamide hydrochloride], […]; in that of `CN[C@@H](C)C(=O)Nc1ccc2c(n1)OC(C)(C)C(=O)N2c1cccc(Cl)c1` [Example 10, (S)—N-[1-(3-Chloro-phenyl)-3,3-dimethyl-2-oxo-2,3-dihydro-1H-pyrido[2,3-b][1,4]oxazin-6-yl]-2-methylamino-propionamide hydrochloride], […].

The assay is the same for the next values; noted with them: read-out: IC50 or PI cIAP1.
Regarding `CN[C@@H](C)C(=O)Nc1ccc2c(n1)CN(Cc1cscn1)C(=O)N2c1ccc(Cl)cc1` [Example 40, (S)—N-[1-(4-Chloro-phenyl)-2-oxo-3-thiazol-4-ylmethyl-1,2,3,4-tetrahydro-pyrido[3,2-d]pyrimidin-6-yl]-2-methylamino-propionamide hydrochloride], the negative logarithm of the IC50 (pIC50) was 6.00 to 8.00.
